“And” between values parts separate entries of the source, which are not always exact repeats. Identical values can stand only once. Like-named read-outs stand apart in the source and are kept apart here.
Target: recombinant SARS-CoV-2 Mpro (Severe acute respiratory syndrome coronavirus 2, UniProt P0DTD1)
Assay: SARS-CoV-2 Mpro inhibition assay (FRET-based proteolytic activity assay)
Type: biochemical
Conditions: for Ki: substrate concentration-independent inhibition constant; for inhibitory activity in the in vitro test: at concentrations below 125 μM
[1] = Ki, 0.2 μM enzyme, 20 μM substrate, compound 125 to 0 μM, 2.5% DMSO
[2] = 0.2 μM enzyme, 20 μM substrate, compound 125 to 0 μM, 2.5% DMSO, read-out: IC50
[3] = 0.2 μM enzyme, 20 μM substrate, compound 125 to 0 μM, 2.5% DMSO, read-out: Ki

O=C1c2c(O)cccc2C([C@@H]2O[C@H](CO)[C@@H](O)[C@H](O)[C@H]2O)c2cc(CO)cc(O)c21 (some centres unmarked) [aloin]
IC50: 96 µM | Ki [1]: 82 µM and 34 µM

O=c1cc(-c2ccc(O)c(-c3c(O)cc(O)c4c(=O)cc(-c5ccc(O)cc5)oc34)c2)oc2cc(O)cc(O)c12 [amentoflavone]
IC50: 28 µM | Ki [1]: 10 µM

O=C(O[C@@H]1O[C@@H]2COC(=O)c3cc(O)c(O)c(O)c3-c3c(cc(O)c(O)c3O)C(=O)O[C@H]([C@H]1O)[C@@H]2O)c1cc(O)c(O)c(O)c1 [corilagin]
IC50: > 125 µM | Ki [1]: > 125 µM

COc1ccc(-c2cc(=O)c3c(O)cc(O[C@@H]4O[C@H](CO[C@@H]5O[C@@H](C)[C@H](O)[C@@H](O)[C@H]5O)[C@@H](O)[C@H](O)[C@H]4O)cc3o2)cc1 [linarin]
IC50: > 125 µM | Ki [1]: > 125 µM | inhibitory activity in the in vitro test: lack of activity

O=c1cc(-c2ccc(O)c(O)c2)oc2cc(O[C@@H]3O[C@H](CO)[C@@H](O)[C@H](O)[C@H]3O)cc(O)c12 [luteoloside]
IC50: > 125 µM | Ki [1]: > 125 µM

C[C@@H]1O[C@@H](OC[C@H]2O[C@@H](Oc3cc(O)c4c(c3)O[C@H](c3ccc(O)cc3)CC4=O)[C@H](O)[C@@H](O)[C@@H]2O)[C@H](O)[C@H](O)[C@H]1O [narirutin]
IC50: > 125 µM | Ki [1]: > 125 µM

C[C@@H]1O[C@@H](O[C@H]2[C@H](Oc3cc(O)c4c(=O)cc(-c5ccc(O)cc5)oc4c3)O[C@H](CO)[C@@H](O)[C@@H]2O)[C@H](O)[C@H](O)[C@H]1O [rhoifolin]
IC50 [2]: 230 µM | Ki [3]: 82 µM

CC1OC(OC2C(c3c(O)cc(O)c4c(=O)cc(-c5ccc(O)cc5)oc34)OC(CO)C(O)C2O)C(O)C(O)C1O (centres unmarked) [vitexin-2-O-rhamnoside, vitexin-2-O-rhaMnoside]
IC50: 65 µM | Ki [1]: 23 µM

CC1CCC2(C(=O)OC3OC(CO)C(O)C(O)C3O)CCC3(C)C(=CCC4C5(C)CCC(OC6OCC(O)C(O)C6O)C(C)(C)C5CCC43C)C2C1(C)O (centres unmarked) [ziyu-glycoside I]
IC50: > 125 µM | Ki [1]: > 125 µM | inhibitory activity in the in vitro test: nonactive

proanthocyanidins
IC50 [2]: > 125 µM | inhibitory activity in the in vitro test: nonactive | Ki [3]: > 125 µM

Reference: article PMC9931176, “Discovery of Diverse Natural Products as Inhibitors of SARS-CoV-2 M^pro Protease through Virtual Screening” (Journal of Chemical Information and Modeling, 2021)
